Experimental data reported in PubChem BioAssay AID1259407 (Chemical Carcinogenesis Research Information System (CCRIS), 2018).
The source made the active and inactive calls. The rule behind the calls is not given here.

System: CCRIS mutagenicity, Ames/micronucleus/aberration tests
Test: CCRIS mutagenicity studies
[1] = Test System: AMES SALMONELLA TYPHIMURIUM, Strain/Indicator: TA100, Metabolic Activation: RAT, LIVER, S-9, AROCLOR 1254, Method: STANDARD PLATE
[2] = Test System: AMES SALMONELLA TYPHIMURIUM, Strain/Indicator: TA98, Metabolic Activation: NONE, Method: PREINCUBATION
[3] = Test System: AMES SALMONELLA TYPHIMURIUM, Strain/Indicator: TA100, Metabolic Activation: NONE, Method: PREINCUBATION
[4] = Test System: AMES SALMONELLA TYPHIMURIUM, Strain/Indicator: TA98, Metabolic Activation: NONE, Method: STANDARD PLATE
[5] = Test System: AMES SALMONELLA TYPHIMURIUM, Strain/Indicator: TA100, Metabolic Activation: NONE, Method: STANDARD PLATE
[6] = Test System: AMES SALMONELLA TYPHIMURIUM, Strain/Indicator: TA100, Metabolic Activation: S-9, Method: STANDARD PLATE

For O=C(O)[C@@H]1Cc2c([nH]c3ccccc23)[C@@H]([C@H]2CCNC2=S)N1, the mutagenic call (Test System: AMES SALMONELLA TYPHIMURIUM, Strain/Indicator: TA98, Metabolic Activation: NONE) was “inactive; negative”, the mutagenic call (Test System: AMES SALMONELLA TYPHIMURIUM, Strain/Indicator: TA98, Metabolic Activation: S-9) was “active; positive” and the mutagenic call (Test System: AMES SALMONELLA TYPHIMURIUM, Strain/Indicator: TA100, Metabolic Activation: NONE) was “inactive; negative”. The mutagenic call (Test System: AMES SALMONELLA TYPHIMURIUM, Strain/Indicator: TA100, Metabolic Activation: S-9) was “inactive; negative”.

With Fc1ccc2cc3c(cc2c1)-c1cccc2cccc-3c12 the mutagenic call [1] was “active; positive”.

In the case of Nc1ccc([N+](=O)[O-])cc1Cl, the mutagenic call (End Point: IN VITRO CHROMOSOMAL ABERRATIONS, Test System: CHL CELLS, Metabolic Activation: RAT, LIVER, S-9, SODIUM PHENOBARBITAL AND 5,6-BENZOFLAVONE) is reported as “active; positive (structural changes)”, the mutagenic call (End Point: IN VITRO MICRONUCLEUS, Test System: CHL/IU CELLS, Metabolic Activation: NONE) is reported as “inactive; negative” and the mutagenic call [2] is reported as “active; positive”. For the same compound, the mutagenic call (Test System: AMES SALMONELLA TYPHIMURIUM, Strain/Indicator: TA98, Metabolic Activation: RAT, LIVER, S-9, KANECHLOR 500, Method: PREINCUBATION) was “active; positive”, the mutagenic call [3] was “inactive; negative” and the mutagenic call (Test System: AMES SALMONELLA TYPHIMURIUM, Strain/Indicator: TA100, Metabolic Activation: RAT, LIVER, S-9, KANECHLOR 500, Method: PREINCUBATION) was “inactive; negative”. For the same compound, the mutagenic call (Test System: UDS RODENT HEPATOCYTES, Strain/Indicator: THY INCORP (NON-S-PHASE), Metabolic Activation: NONE, Method: AUTORADIOGRAPHY) was “inactive; negative”.

In the case of OCCN1CC1, the mutagenic call (Test System: CHINESE HAMSTER V-79, Strain/Indicator: V-79/6-THIOGUANINE, Metabolic Activation: NONE, Method: FLASK ASSAY) is reported as “active; positive”.

With Nc1ccc(/C=C/c2ccc([N+](=O)[O-])cc2)cc1 the mutagenic call (Test System: AMES SALMONELLA TYPHIMURIUM, Strain/Indicator: TA98 (NR), Metabolic Activation: NONE, Method: STANDARD PLATE) was “inactive; negative”, the mutagenic call (Test System: AMES SALMONELLA TYPHIMURIUM, Strain/Indicator: TA98 (NR), Metabolic Activation: S-9, Method: STANDARD PLATE) was “active; positive” and the mutagenic call [4] was “active; positive”. The mutagenic call (Test System: AMES SALMONELLA TYPHIMURIUM, Strain/Indicator: TA98, Metabolic Activation: S-9, Method: STANDARD PLATE) was “active; positive”, the mutagenic call (Test System: AMES SALMONELLA TYPHIMURIUM, Strain/Indicator: TA100 (NR), Metabolic Activation: NONE, Method: STANDARD PLATE) was “inactive; negative” and the mutagenic call (Test System: AMES SALMONELLA TYPHIMURIUM, Strain/Indicator: TA100 (NR), Metabolic Activation: S-9, Method: STANDARD PLATE) was “active; positive”. The mutagenic call [5] was “inactive; negative” and the mutagenic call [6] was “active; positive”.

In the case of O=C(O)CCSCCC(=O)O, the mutagenic call (Test System: Ames Salmonella typhimurium, Strain/Indicator: TA98, Metabolic Activation: None, Method: Preincubation) is reported as “inactive; negative”, the mutagenic call (Test System: Ames Salmonella typhimurium, Strain/Indicator: TA98, Metabolic Activation: Rat, Liver, S-9, Phenobarbital and 5,6-benzoflavone, Method: Preincubation) is reported as “inactive; negative” and the mutagenic call (Test System: Ames Salmonella typhimurium, Strain/Indicator: TA100, Metabolic Activation: None, Method: Preincubation) is reported as “inactive; negative”. The mutagenic call (Test System: Ames Salmonella typhimurium, Strain/Indicator: TA100, Metabolic Activation: Rat, Liver, S-9, Phenobarbital and 5,6-benzoflavone, Method: Preincubation) was “inactive; negative”, the mutagenic call (Test System: Ames Salmonella typhimurium, Strain/Indicator: TA1535, Metabolic Activation: None, Method: Preincubation) was “inactive; negative” and the mutagenic call (Test System: Ames Salmonella typhimurium, Strain/Indicator: TA1535, Metabolic Activation: Rat, Liver, S-9, Phenobarbital and 5,6-benzoflavone, Method: Preincubation) was “inactive; negative”. For the same compound, the mutagenic call (Test System: Ames Salmonella typhimurium, Strain/Indicator: TA1537, Metabolic Activation: None, Method: Preincubation) was “inactive; negative”, the mutagenic call (Test System: Ames Salmonella typhimurium, Strain/Indicator: TA1537, Metabolic Activation: Rat, Liver, S-9, Phenobarbital and 5,6-benzoflavone, Method: Preincubation) was “inactive; negative” and the mutagenic call (Test System: E. coli, Strain/Indicator: WP2uvrA/pKM101, Metabolic Activation: None, Method: Preincubation) was “inactive; negative”. The mutagenic call (Test System: E. coli, Strain/Indicator: WP2uvrA/pKM101, Metabolic Activation: Rat, Liver, S-9, Phenobarbital and 5,6-benzoflavone, Method: Preincubation) was “inactive; negative”.

With c1cc2cnncc2cn1 the mutagenic call [2] was “inactive; negative”, the mutagenic call (Test System: AMES SALMONELLA TYPHIMURIUM, Strain/Indicator: TA98, Metabolic Activation: RAT, LIVER, S-9, PCB, Method: PREINCUBATION) was “inactive; negative” and the mutagenic call [3] was “inactive; negative”. The mutagenic call (Test System: AMES SALMONELLA TYPHIMURIUM, Strain/Indicator: TA100, Metabolic Activation: RAT, LIVER, S-9, PCB, Method: PREINCUBATION) was “inactive; negative”.

In the case of Cc1cccc2c1ccc1c3ccccc3ccc21, the mutagenic call (Test System: AMES SALMONELLA TYPHIMURIUM, Strain/Indicator: TA100, Metabolic Activation: RAT, LIVER, MICROSOMES, 1-METHYLCHRYSENE, Method: STANDARD PLATE) is reported as “inactive; negative”, the mutagenic call (Test System: AMES SALMONELLA TYPHIMURIUM, Strain/Indicator: TA100, Metabolic Activation: RAT, LIVER, MICROSOMES, AROCLOR 1254, Method: STANDARD PLATE) is reported as “inactive; negative” and the mutagenic call (Test System: AMES SALMONELLA TYPHIMURIUM, Strain/Indicator: TA100, Metabolic Activation: RAT, LIVER, MICROSOMES, Method: STANDARD PLATE) is reported as “inactive; negative”.

In the case of CCCCCC(=O)N=c1sn(C(=O)CCCCC)c2ccc([N+](=O)[O-])cc12, the mutagenic call [6] is reported as “active; positive”.

In the case of O=c1[nH]c2ccccc2n1C1CCN(CCCC(c2ccc(F)cc2)c2ccc(F)cc2)CC1, the mutagenic call [4] is reported as “inactive; negative”, the mutagenic call (Test System: AMES SALMONELLA TYPHIMURIUM, Strain/Indicator: TA98, Metabolic Activation: RAT, LIVER, S-9, AROCLOR 1254, Method: STANDARD PLATE) is reported as “inactive; negative” and the mutagenic call [5] is reported as “inactive; negative”. For the same compound, the mutagenic call [1] was “inactive; negative”, the mutagenic call (Test System: AMES SALMONELLA TYPHIMURIUM, Strain/Indicator: TA1535, Metabolic Activation: NONE, Method: STANDARD PLATE) was “inactive; negative” and the mutagenic call (Test System: AMES SALMONELLA TYPHIMURIUM, Strain/Indicator: TA1535, Metabolic Activation: RAT, LIVER, S-9, AROCLOR 1254, Method: STANDARD PLATE) was “inactive; negative”. The mutagenic call (Test System: AMES SALMONELLA TYPHIMURIUM, Strain/Indicator: TA1537, Metabolic Activation: NONE, Method: STANDARD PLATE) was “inactive; negative” and the mutagenic call (Test System: AMES SALMONELLA TYPHIMURIUM, Strain/Indicator: TA1537, Metabolic Activation: RAT, LIVER, S-9, AROCLOR 1254, Method: STANDARD PLATE) was “inactive; negative”.
